Holding throughout (assay type): cell-based
Experiment [1] has as its system Ba/F3 cells expressing EGFR-wt. The experiment in a line: Growth inhibition (GI50) of Ba/F3 cells expressing EGFR-wt, Celltiter glo. The note with it: Mus musculus, BaF3, 72 h. In short, it runs like this: (§1)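 We seed Ba/F3 transfectants at 100,000 cells/ml, dose them with ten 4-fold compound dilutions (2 mM top stock, 0.5% DMSO) after 4 h, and culture for 72 h at 37 °C. CellTiter-Glo then reports viable cell number, from which the GI50 is fitted.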

For experiment [2], the system named is Ba/F3 cells expressing del19/T790M (EGFR-DT). The experiment can be described thus: Growth inhibition (GI50) of Ba/F3 cells expressing del19/T790M (EGFR-DT), Celltiter glo. The note with it: Mus musculus, BaF3, 72 h. In short, it runs like this: as §1
Another experiment deals with parental Ba/F3 cell line. The experiment can be described thus: Growth inhibition (GI50) of the parental Ba/F3 cell line (not introduced with EGFR variants), Celltiter glo. The note with it: Mus musculus, BaF3, 72 h, parental Ba/F3 cells. In short, it runs like this:
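Viable cell count by CellTiter-Glo after 72 h at 37 °C gave GI50 values (μM, 50% growth inhibition). Cells lacking EGFR variants were seeded at 100,000 cells/ml and dosed 4 h later with 4-fold serial dilutions from a 2 mM stock, 0.5% DMSO.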
A general note: In ATP-based viability assays light output follows the ATP content of the culture.

The test system of experiment [3] is Ba/F3 cells expressing L858R/T790M/C797S (EGFR-LTC). The experiment in a line: Growth inhibition (GI50) of Ba/F3 cells expressing L858R/T790M/C797S (EGFR-LTC), Celltiter glo. The note with it: Mus musculus, BaF3, 72 h. In short, it runs like this: as §1
Experiment [4] has as its system Ba/F3 cells expressing L858R/T790M (EGFR-LT). The experiment can be described thus: Growth inhibition (GI50) of Ba/F3 cells expressing L858R/T790M (EGFR-LT), Celltiter glo. The note with it: Mus musculus, BaF3, 72 h. In short, it runs like this:
as §1

Experiment [5] deals with Ba/F3 cells expressing del19/T790M/C797S (EGFR-DTC). The experiment in a line: Growth inhibition (GI50) of Ba/F3 cells expressing del19/T790M/C797S (EGFR-DTC), Celltiter glo. The note with it: Mus musculus, BaF3, 72 h. In outline: as §1

From patent US20240228458A1, “PYRIMIDINE DERIVATIVE HAVING PROTEIN KINASE INHIBITORY ACTIVITY, AND THERAPEUTIC PHARMACEUTICAL COMPOSITION COMPRISING SAME” (THERAPEX CO., LTD., priority 2021, published 2024) come the findings set out here.

SMILES strings stand for the structures.

Broadly, the GI50 is the concentration that inhibits growth by half.

`COc1cc(N2CCC(N3CCN(C)CC3)CC2)c(C)cc1Nc1ncc(Br)c(Nc2cc3c(cc2N(C)S(C)(=O)=O)CCO3)n1` [Example 250, N-(6-((5-bromo-2-((2-methoxy-5-methyl-4-(4-(4-methylpiperazin-1-yl)piperidin-1-yl)phenyl)amino)pyrimidin-4-yl)amino)-2,3-dihydrobenzofuran-5-yl)-N-methylmethanesulfonamide]: the GI50 in experiment [1] lay in the range of 100 to 500 nM; in experiment [2], 1 to 25 nM; with parental Ba/F3 cell line it was 2000 to 10000 nM; in experiment [3], 1 to 25 nM; in experiment [4] it was 1 to 25 nM; in experiment [5], 1 to 25 nM.

For `Cc1cc(Nc2ncc(Br)c(Nc3cc4c(cc3N(C)S(C)(=O)=O)CCO4)n2)c(Cl)cc1N1CCC(N2CCN(C)CC2)CC1` [Example 251, N-(6-((5-bromo-2-((2-chloro-5-methyl-4-(4-(4-methylpiperazin-1-yl)piperidin-1-yl)phenyl)amino)pyrimidin-4-yl)amino)-2,3-dihydrobenzofuran-5-yl)-N-methylmethanesulfonamide], the GI50 was in the range of 100 to 500 nM in experiment [1]; 1 to 25 nM in experiment [2]; 2000 to 10000 nM with parental Ba/F3 cell line; 1 to 25 nM in experiment [3]; 25 to 100 nM in experiment [4]; 25 to 100 nM in experiment [5].

Turning to `COc1cc(N2CCC(N3CCN(C)CC3)CC2)c(Cl)cc1Nc1ncc(Br)c(Nc2cc3c(cc2N(C)S(C)(=O)=O)CCO3)n1` [Example 252, N-(6-((5-bromo-2-((5-chloro-2-methoxy-4-(4-(4-methylpiperazin-1-yl)piperidin-1-yl)phenyl)amino)pyrimidin-4-yl)amino)-2,3-dihydrobenzofuran-5-yl)-N-methylmethanesulfonamide], the GI50 in experiment [1] was 25 to 100 nM; in experiment [2], 1 to 25 nM; with parental Ba/F3 cell line, 2000 to 10000 nM; in experiment [3], 1 to 25 nM; in experiment [4], 1 to 25 nM; in experiment [5], 25 to 100 nM.

As for `CN1CCN(C2CCN(c3cc(Cl)c(Nc4ncc(Br)c(Nc5cc6c(cc5N(C)S(C)(=O)=O)CCO6)n4)cc3Cl)CC2)CC1` [Example 253, N-(6-((5-bromo-2-((2,5-dichloro-4-(4-(4-methylpiperazin-1-yl)piperidin-1-yl)phenyl)amino)pyrimidin-4-yl)amino)-2,3-dihydrobenzofuran-5-yl)-N-methylmethanesulfonamide], the GI50 in experiment [1] fell in the range of 500 to 2000 nM; in experiment [2], 25 to 100 nM; in the experiment with parental Ba/F3 cell line it was 100 to 500 nM; in experiment [3] it was 25 to 100 nM; in experiment [4], 25 to 100 nM; in experiment [5], 1 to 25 nM.

Turning to `CCc1cc(Nc2ncc(Br)c(Nc3cc4c(cc3N(C)S(C)(=O)=O)CCO4)n2)c(OC)cc1N1CCC(N2CCN(C)CC2)CC1` [Example 254, N-(6-((5-bromo-2-((5-ethyl-2-methoxy-4-(4-(4-methylpiperazin-1-yl)piperidin-1-yl)phenyl)amino)pyrimidin-4-yl)amino)-2,3-dihydrobenzofuran-5-yl)-N-methylmethanesulfonamide], the GI50 in experiment [1] is 500 to 2000 nM; in experiment [2], 1 to 25 nM; with parental Ba/F3 cell line, 500 to 2000 nM; in experiment [3], 25 to 100 nM; in experiment [4], 25 to 100 nM; in experiment [5], 1 to 25 nM.

Consider `COc1cc(N2CCC(N3CCN(C(F)(F)F)CC3)CC2)c(C)cc1Nc1ncc(Br)c(Nc2cc3c(cc2N(C)S(C)(=O)=O)CCO3)n1` [Example 255, N-(6-((5-bromo-2-((2-methoxy-5-methyl-4-(4-(4-(trifluoromethyl)piperazin-1-yl)piperidin-1-yl)phenyl)amino)pyrimidin-4-yl)amino)-2,3-dihydrobenzofuran-5-yl)-N-methylmethanesulfonamide], for which the 50% growth inhibitory concentration (GI50) in experiment [1] lay within 2000 to 10000 nM; in experiment [2], 25 to 100 nM; with parental Ba/F3 cell line, 2000 to 10000 nM; in experiment [3] it was 100 to 500 nM; in experiment [4], 100 to 500 nM; in experiment [5] it was 25 to 100 nM.

On to `COc1cc(N2CCC(N3CCN(C)CC3)CC2)c(F)cc1Nc1ncc(Br)c(Nc2cc3c(cc2N(C)S(C)(=O)=O)CCO3)n1` [Example 256, N-(6-((5-bromo-2-((5-fluoro-2-methoxy-4-(4-(4-methylpiperazin-1-yl)piperidin-1-yl)phenyl)amino)pyrimidin-4-yl)amino)-2,3-dihydrobenzofuran-5-yl)-N-methylmethanesulfonamide], for which the GI50 in experiment [1] was 100 to 500 nM; in experiment [2], 1 to 25 nM; in the experiment on parental Ba/F3 cell line it was 100 to 500 nM; in experiment [3], 100 to 500 nM; in experiment [4], 100 to 500 nM; in experiment [5], 25 to 100 nM.

Turning to `CN1CCN(C2CCN(c3cc(Cl)c(Nc4ncc(Cl)c(Nc5cc6c(cc5N(C)S(C)(=O)=O)CCO6)n4)cc3Cl)CC2)CC1` [Example 259, N-(6-((5-chloro-2-((2,5-dichloro-4-(4-(4-methylpiperazin-1-yl)piperidin-1-yl)phenyl)amino)pyrimidin-4-yl)amino)-2,3-dihydrobenzofuran-5-yl)-N-methylmethanesulfonamide], the GI50 in experiment [1] lay in the range of 500 to 2000 nM; in experiment [2] it was 25 to 100 nM; in the experiment with parental Ba/F3 cell line, 500 to 2000 nM; in experiment [3], 100 to 500 nM; in experiment [4], 25 to 100 nM; in experiment [5], 1 to 25 nM.

Turning to `COc1ccc(N(C)S(C)(=O)=O)c(Nc2nc(Nc3cc(C)c(N4CCC(N5CCN(C)CC5)CC4)cc3OC)ncc2Cl)c1` [Example 260, N-(2-((5-chloro-2-((2-methoxy-5-methyl-4-(4-(4-methylpiperazin-1-yl)piperidin-1-yl)phenyl)amino)pyrimidin-4-yl)amino)-4-methoxyphenyl)-N-methylmethanesulfonamide], the GI50 in experiment [1] fell in the range of 100 to 500 nM; in experiment [2], 1 to 25 nM; in the experiment on parental Ba/F3 cell line, 2000 to 10000 nM; in experiment [3], 100 to 500 nM; in experiment [4], 25 to 100 nM; in experiment [5], 100 to 500 nM.

Consider `COc1cc(N2CCC(N3CCN(C4CC4)CC3)CC2)c(C)cc1Nc1ncc(Br)c(Nc2cc3c(cc2N(C)S(C)(=O)=O)CCO3)n1` [Example 261, N-(6-((5-bromo-2-((4-(4-(4-cyclopropylpiperazin-1-yl)piperidin-1-yl)-2-methoxy-5-methylphenyl)amino)pyrimidin-4-yl)amino)-2,3-dihydrobenzofuran-5-yl)-N-methylmethanesulfonamide], for which the GI50 was 25 to 100 nM in experiment [1]; 1 to 25 nM in experiment [2]; 2000 to 10000 nM in the experiment on parental Ba/F3 cell line; 25 to 100 nM in experiment [3]; 25 to 100 nM in experiment [4]; 100 to 500 nM in experiment [5].

In the case of `COc1cc(N2CCC(N3CCC(N(C)C)C3)CC2)c(C)cc1Nc1ncc(Br)c(Nc2cc3c(cc2N(C)S(C)(=O)=O)CCO3)n1` (stereo not drawn) [Example 262, N-(6-((5-bromo-2-((4-(4-(3-(dimethylamino)pyrrolidin-1-yl)piperidin-1-yl)-2-methoxy-5-methylphenyl)amino)pyrimidin-4-yl)amino)-2,3-dihydrobenzofuran-5-yl)-N-methylmethanesulfonamide], the GI50 is 100 to 500 nM in experiment [1]; 1 to 25 nM in experiment [2]; 25 to 100 nM with parental Ba/F3 cell line; 25 to 100 nM in experiment [3]; 25 to 100 nM in experiment [4]; 25 to 100 nM in experiment [5].

As to `Cc1cc(Nc2ncc(Cl)c(Nc3cc4c(cc3N(C)S(C)(=O)=O)CCO4)n2)c(Cl)cc1N1CCC(N2CCN(C)CC2)CC1` [Example 263, N-(6-((5-chloro-2-((2-chloro-5-methyl-4-(4-(4-methylpiperazin-1-yl)piperidin-1-yl)phenyl)amino)pyrimidin-4-yl)amino)-2,3-dihydrobenzofuran-5-yl)-N-methylmethanesulfonamide], the GI50 is 500 to 2000 nM in experiment [1]; 100 to 500 nM in experiment [2]; above 10000 nM in the experiment on parental Ba/F3 cell line; 100 to 500 nM in experiment [3]; 100 to 500 nM in experiment [4]; 500 to 2000 nM in experiment [5].

As for `COc1cc(N2CCC(N3CCCN(C)CC3)CC2)c(Cl)cc1Nc1ncc(Cl)c(Nc2cc3c(cc2N(C)S(C)(=O)=O)CCO3)n1` [Example 264, N-(6-((5-chloro-2-((5-chloro-2-methoxy-4-(4-(4-methyl-1,4-diazepan-1-yl)piperidin-1-yl)phenyl)amino)pyrimidin-4-yl)amino)-2,3-dihydrobenzofuran-5-yl)-N-methylmethanesulfonamide], the concentration for 50% growth inhibition (GI50) is 100 to 500 nM in experiment [1]; 1 to 25 nM in experiment [2]; 2000 to 10000 nM with parental Ba/F3 cell line; 25 to 100 nM in experiment [3]; 1 to 25 nM in experiment [4]; 25 to 100 nM in experiment [5].

As to `COc1cc(N2CCC(N3CCCN(C)CC3)CC2)c(C)cc1Nc1ncc(Cl)c(Nc2cc3c(cc2N(C)S(C)(=O)=O)CCO3)n1` [Example 265, N-(6-((5-chloro-2-((2-methoxy-5-methyl-4-(4-(4-methyl-1,4-diazepan-1-yl)piperidin-1-yl)phenyl)amino)pyrimidin-4-yl)amino)-2,3-dihydrobenzofuran-5-yl)-N-methylmethanesulfonamide], the concentration for 50% growth inhibition (GI50) lay within 100 to 500 nM in experiment [1]; 25 to 100 nM in experiment [2]; 500 to 2000 nM with parental Ba/F3 cell line; 25 to 100 nM in experiment [3]; 25 to 100 nM in experiment [4]; 25 to 100 nM in experiment [5].
